“And” between values parts separate entries of the source, which are not always exact repeats. Identical values can stand only once. Inconclusive results and toxic doses are left out.

The test concerns L1210 leukemia ip in BDF1 mice, survival T/C. Description: NCI In Vivo Anticancer Drug Screen. Data for tumor model L1210 Leukemia (intraperitoneal) in B6D2F1 (BDF1) mice. The conditions noted are these: endpoint: mean survival time, higher = longer survival. In outline:
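Ratio derived from survival: compound-dosed mice over vehicle-dosed mice, all bearing a transplantable tumor.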

[1] abbreviates: dose: 100.0 mg/kg/injection, schedule: Q04DX002 (ip), vehicle: Klucel (hydroxypropylcellulose) (HPC).
[2] abbreviates: dose: 200.0 mg/kg/injection, schedule: Q04DX002 (ip), vehicle: Klucel (hydroxypropylcellulose) (HPC).
Setting [3] is: dose: 400.0 mg/kg/injection, schedule: Q04DX002 (ip), vehicle: Klucel (hydroxypropylcellulose) (HPC).
Setting [4] is: dose: 100.0 mg/kg/injection, schedule: Q01DX009 (ip), vehicle: saline with Tween-80.
[5] abbreviates: dose: 100.0 mg/kg/injection, schedule: Q04DX003 (ip), vehicle: saline with Tween-80.
The mark [6] stands for this setting: dose: 200.0 mg/kg/injection, schedule: Q01DX009 (ip), vehicle: saline with Tween-80.
[7] abbreviates: dose: 200.0 mg/kg/injection, schedule: Q04DX003 (ip), vehicle: saline with Tween-80.
[8] abbreviates: dose: 400.0 mg/kg/injection, schedule: Q01DX009 (ip), vehicle: saline with Tween-80.
The mark [9] stands for this setting: dose: 400.0 mg/kg/injection, schedule: Q04DX003 (ip), vehicle: saline with Tween-80.

`CCOC1=C(N2CC2)C(=O)C(OCC)=C(N2CC2)C1=O`: the T/C reads like this: (dose: 0.1 mg/kg/injection, schedule: Q01DX009 (ip), vehicle: saline) 109 % of control; (dose: 0.1 mg/kg/injection, schedule: Q01DX Z (ip), vehicle: carboxymethylcellulose (CMC)) 105 % of control; (dose: 0.25 mg/kg/injection, schedule: Q01DX001 (ip), vehicle: saline) 105 % of control; (dose: 0.25 mg/kg/injection, schedule: Q01DX009 (ip), vehicle: saline) 107 % of control; (dose: 0.25 mg/kg/injection, schedule: Q01DX Z (ip), vehicle: saline) 118 % of control; (dose: 0.3 mg/kg/injection, schedule: Q01DX Z (ip), vehicle: carboxymethylcellulose (CMC)) 105 % of control. In addition, the T/C (dose: 0.31 mg/kg/injection, schedule: Q01DX Z (ip), vehicle: saline) is 110 % of control; the T/C (dose: 0.47 mg/kg/injection, schedule: Q01DX Z (ip), vehicle: saline) was 121 % of control; the T/C (dose: 0.5 mg/kg/injection, schedule: Q01DX001 (ip), vehicle: saline) is 103 % of control; the T/C (dose: 0.5 mg/kg/injection, schedule: Q01DX009 (ip), vehicle: saline) is 109 % of control; the T/C (dose: 0.5 mg/kg/injection, schedule: Q01DX Z (ip), vehicle: saline) was 118 % of control; the T/C (dose: 0.7 mg/kg/injection, schedule: Q01DX Z (ip), vehicle: saline) is 121 % of control. The T/C is 107 % of control (dose: 1.0 mg/kg/injection, schedule: Q01DX001 (ip), vehicle: saline); 121 % of control (dose: 1.0 mg/kg/injection, schedule: Q01DX009 (ip), vehicle: saline); 157 % of control (dose: 1.0 mg/kg/injection, schedule: Q01DX Z (ip), vehicle: saline); 118 % of control (dose: 2.0 mg/kg/injection, schedule: Q01DX001 (ip), vehicle: saline); 94 % of control (dose: 4.0 mg/kg/injection, schedule: Q01DX Z (ip), vehicle: saline); 158 % of control (dose: 5.0 mg/kg/injection, schedule: Q01DX001 (ip), vehicle: saline). For the same molecule, the T/C was 102 % of control (dose: 5.0 mg/kg/injection, schedule: Q01DX Z (ip), vehicle: methylcellulose (MC)) and 103 % of control (dose: 10.0 mg/kg/injection, schedule: Q01DX001 (ip), vehicle: saline).

For the molecule `ClCC1COC(CCc2ccccc2)O1` (configuration not stated), the T/C (dose: 222.0 mg/kg/injection, schedule: Q01DX Z (ip), vehicle: saline) was 95 % of control; the T/C (dose: 333.0 mg/kg/injection, schedule: Q01DX Z (ip), vehicle: saline) was 95 % of control; the T/C (dose: 500.0 mg/kg/injection, schedule: Q01DX Z (ip), vehicle: saline) was 113 % of control.

Consider `O=C(NCCCl)NC1CCS(=O)(=O)C1` (configuration not stated), for which the T/C was 98 % of control (dose: 100.0 mg/kg/injection, schedule: Q01DX001 (ip), vehicle: other); 98 % of control (dose: 200.0 mg/kg/injection, schedule: Q01DX001 (ip), vehicle: other); 98 % of control (dose: 400.0 mg/kg/injection, schedule: Q01DX001 (ip), vehicle: other).

As to `COc1ccc2c(ccc3c2ncc2c(=O)[nH]n(C)c23)c1`, the T/C is 93 % of control (dose: 50.0 mg/kg/injection, schedule: Q01DX009 (ip), vehicle: Klucel (hydroxypropylcellulose) (HPC)); 93 % of control (dose: 100.0 mg/kg/injection, schedule: Q01DX009 (ip), vehicle: Klucel (hydroxypropylcellulose) (HPC)); 93 % of control (dose: 200.0 mg/kg/injection, schedule: Q01DX009 (ip), vehicle: Klucel (hydroxypropylcellulose) (HPC)).

For the molecule `CCn1[nH]cc2c3nnc(-c4ccccc4)c3cnc21`, the T/C is 98 % of control under setting [1], 92 % of control under setting [2] and 95 % of control under setting [3].

In the case of `O=C1NC2NC(=O)NC2N1` (configuration not stated), the T/C under setting [4] is 98 % of control; the T/C under setting [5] was 112 % of control; the T/C under setting [6] was 115 % of control; the T/C under setting [7] is 98 % of control; the T/C under setting [8] was 96 % of control; the T/C under setting [9] is 101 % of control.

Regarding `O=C(O)CCCc1ccc(Br)cc1`, the T/C runs as follows: under setting [5], 96 % of control; under setting [7], 92 % of control; under setting [9], 93 % of control.

On to `O=C1CCCN(Cc2ccccc2)C(=O)N1`, for which the T/C is 97 % of control under setting [4]; 103 % of control under setting [5]; 97 % of control under setting [6]; 103 % of control under setting [7]; 97 % of control under setting [8]; 103 % of control under setting [9].

As to `CCOc1ccc(NC(=O)CCN2CCC(O)(c3ccccc3)CC2)cc1`, the T/C is 96 % of control under setting [4]; 103 % of control under setting [5]; 86 % of control under setting [6]; 100 % of control under setting [7]; 91 % of control under setting [8]; 95 % of control under setting [9].

Regarding `COc1ccc(OC(C)OCCOCCOC(C)=O)cc1` (configuration not stated), the T/C was 104 % of control (dose: 100.0 mg/kg/injection, schedule: Q04DX002 (ip), vehicle: saline); 93 % of control (dose: 200.0 mg/kg/injection, schedule: Q04DX002 (ip), vehicle: saline); 107 % of control (dose: 400.0 mg/kg/injection, schedule: Q04DX002 (ip), vehicle: saline).

Take `CC(=O)c1c(C)n(C)c2ccccc12`: the T/C by setting is: (dose: 100.0 mg/kg/injection, schedule: Q01DX001 (ip), vehicle: saline with Tween-80) 103 % of control; under setting [1], 95 % of control; under setting [5], 95 % of control; (dose: 200.0 mg/kg/injection, schedule: Q01DX001 (ip), vehicle: saline with Tween-80) 101 % of control; under setting [2], 98 % of control; under setting [7], 92 % of control. For the same molecule, the T/C was 103 % of control (dose: 400.0 mg/kg/injection, schedule: Q01DX001 (ip), vehicle: saline with Tween-80); 109 % of control under setting [3]; 93 % of control under setting [9].

On to `OCCCCCCN=Cc1ccccc1O.OCCCCCCN=Cc1ccccc1O.[Cu]`, for which the T/C is, setting by setting: (dose: 9.5 mg/kg/injection, schedule: Q01DX001 (ip), vehicle: other) 95 % of control; (dose: 19.0 mg/kg/injection, schedule: Q01DX001 (ip), vehicle: other) 100 % of control and 92 % of control; (dose: 19.0 mg/kg/injection, schedule: Q01DX009 (ip), vehicle: other) 93 % of control; (dose: 38.0 mg/kg/injection, schedule: Q01DX001 (ip), vehicle: other) 94 % of control and 95 % of control; (dose: 38.0 mg/kg/injection, schedule: Q01DX009 (ip), vehicle: other) 95 % of control; (dose: 75.0 mg/kg/injection, schedule: Q01DX001 (ip), vehicle: other) 95 % of control and 102 % of control. In addition, the T/C (dose: 75.0 mg/kg/injection, schedule: Q01DX009 (ip), vehicle: other) was 96 % of control.

Take `O=C(Nc1ccccc1)c1ccccc1C(O)(c1ccccc1)c1ccccn1` (configuration not stated): the T/C was 95 % of control under setting [4], 97 % of control under setting [6] and 92 % of control under setting [8].

As to `C[n+]1c(/C=C/c2ccc(O)c3ncccc23)[se]c2ccccc21`, the T/C (dose: 100.0 mg/kg/injection, schedule: Q01DX001 (ip), vehicle: carboxymethylcellulose (CMC)) was 95 % of control; the T/C (dose: 100.0 mg/kg/injection, schedule: Q04DX003 (ip), vehicle: saline) was 108 % of control; the T/C (dose: 200.0 mg/kg/injection, schedule: Q01DX001 (ip), vehicle: carboxymethylcellulose (CMC)) was 100 % of control; the T/C (dose: 200.0 mg/kg/injection, schedule: Q04DX003 (ip), vehicle: saline) is 110 % of control; the T/C (dose: 400.0 mg/kg/injection, schedule: Q01DX001 (ip), vehicle: carboxymethylcellulose (CMC)) was 105 % of control; the T/C (dose: 400.0 mg/kg/injection, schedule: Q04DX003 (ip), vehicle: saline) is 105 % of control.

For the molecule `CCOC(=O)CCN(Cc1ccco1)C(=S)Nc1ccccc1`, under “dose: 200.0 mg/kg/injection, schedule: Q01DX Z (ip), vehicle: methylcellulose (MC)”, the T/C is 89 % of control.

Values taken from PubChem BioAssay AID248 (DTP/NCI, 2004).
